The nature of series [1]: Encapsulation test C (interfacial tension against purified water). It is filed as physicochemical. The procedure:
The interfacial tension was measured with the force tensiometer SIGMA 702 (KSV Instruments LTD).

A short description of series [2]: l-Menthol dissolution test. To be noted: for Dissolution: stored at 20° C. It is filed as physicochemical. As to the method: The solution was stored at 20° C. and evaluated based on the time during which the solution was maintained in a liquid state without solidifying.
A sample that solidified before being cooled down to 20° C. [e.g., during the process of cooling down to a temperature below the melting point of l-menthol (generally 42 to 45° C.)] or immediately (e.g., within 30 minutes) after being stored at 20° C. was rated D. A sample that was maintained as a solution for a while (e.g., more than 30 minutes) but solidified in less than 24 hours was rated C.

Some results are limits rather than exact numbers.

In turn, `CCOC(=O)CCC(=O)OCC` [Diethyl succinate] showed an interfacial tension in series [1] (against purified water, samples containing 80 to 50 wt % l-menthol) of no less than 5 mN/m. The Interfacial tension rating result is given as “A (a sample having an interfacial tension of 5 mN/m or more was rated A)” in series [1] (l-Menthol 50, solvent 50 pbw); “A (a sample having an interfacial tension of 5 mN/m or more was rated A)” in series [1] (l-Menthol 60, solvent 40 pbw); “A (a sample having an interfacial tension of 5 mN/m or more was rated A)” in series [1] (l-Menthol 70, solvent 30 pbw); “A (a sample having an interfacial tension of 5 mN/m or more was rated A)” in series [1] (l-Menthol 80, solvent 20 pbw). In addition, the Dissolution entry in series [2] (l-Menthol 50, solvent 50 pbw) is “A (A sample that did not solidify in 10 days or more was rated A)”; in series [2] (l-Menthol 60, solvent 40 pbw), “A (A sample that did not solidify in 10 days or more was rated A)”; in series [2] (l-Menthol 70, solvent 30 pbw), “A (A sample that did not solidify in 10 days or more was rated A)”; in series [2] (l-Menthol 80, solvent 20 pbw), “C (A sample that was maintained as a solution for a while (e.g., more than 30 minutes) but solidified in less than 24 hours was rated C)”. In addition, the “ability to dissolve menthol (rating)” value in series [2] (menthol concentration ranging 70 to 50 wt %) was “A or B”.

Values taken from patent US20230133580A1, “MENTHOL-CONTAINING COMPOSITION” (SUNSHO PHARMACEUTICAL CO., LTD., priority 2020, published 2023).
